The values that follow come from patent US11524940B1, “Inhibitors of cysteine proteases and methods of use thereof” (priority 2020, dated 2022).

The structures appear in SMILES notation. Bounds are passed on as bounds.

For the test, the target named is 229E Mpro (Human coronavirus 229E (HCoV-229E), UniProt P0C6X1). The test can be described thus: 229E Mpro activity. The format is biochemical. Conditions: read-out: 229E Mpro EC50.
Chain of 229E Mpro (P0C6X1 2966-3267 limits assumed): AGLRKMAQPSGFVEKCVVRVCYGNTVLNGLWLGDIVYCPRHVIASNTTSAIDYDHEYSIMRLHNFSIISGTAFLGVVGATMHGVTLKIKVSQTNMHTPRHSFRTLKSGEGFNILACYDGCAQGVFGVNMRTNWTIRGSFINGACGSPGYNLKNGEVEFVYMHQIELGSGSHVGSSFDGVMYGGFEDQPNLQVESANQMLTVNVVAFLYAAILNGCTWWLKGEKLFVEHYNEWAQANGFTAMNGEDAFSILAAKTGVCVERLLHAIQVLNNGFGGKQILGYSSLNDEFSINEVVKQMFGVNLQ
Method: Compounds are assayed using standard methods to assess compound activity and IC50. […] The assay buffer contains 20 mM of Tris-HCl (pH 7.3), 100 mM of NaCl, 1 mM of EDTA, 5mM of TCEP and 0.1% BSA.
Turning to `CC[C@H]1CN(C(=O)c2cc3c(OC)cccc3[nH]2)[C@@H]1C(=O)N[C@H](C#N)C[C@@H]1CCNC1=O` [Compound 391, (2S,3S)-N-((S)-1-cyano-2-((S)-2-oxopyrrolidin-3-yl)ethyl)-3-ethyl-1-(4-methoxy-1H-indole-2-carbonyl)azetidine-2-carboxamide], the EC50 is > 30 µM.
As for `CC(C)(C)OC(=O)Nc1cccn([C@H](CC2CC2)C(=O)N[C@H](C#N)C[C@@H]2CCNC2=O)c1=O` (single isomer, unassigned) [505 (Isomer 1)], the figure is > 30 µM; as for `Cc1ccn(C(CC2CC2)C(=O)N[C@H](C#N)C[C@@H]2CCNC2=O)c(=O)c1NC(=O)OC(C)(C)C` (single isomer, unassigned) [591 (Isomer 2)], > 30 µM; as for `N#C[C@H](C[C@@H]1CCNC1=O)NC(=O)[C@@H]1CCCNN1C(=O)/C=C/c1ccc(Cl)cc1F` [Compound 213, (3S)-2-[(E)-3-(4-chloro-2-fluoro-phenyl)prop-2-enoyl]-N-[(1S)-1-cyano-2-[(3S)-2-oxopyrrolidin-3-yl]ethyl]hexahydropyridazine-3-carboxamide], > 30 µM.
The value for `COc1cccc2[nH]c(C(=O)N[C@@H](CC(C)C)C(=O)N[C@@H](C[C@@H]3CCNC3=O)C(C#N)NC(C)(C)C)cc12` (single isomer, unassigned) [323 (Isomer 1)] was < 2 µM; that for `COCCOCCOc1cccc2[nH]c(C(=O)NC(CC(C)(C)C)C(=O)NC(C#N)CC3CCCNC3=O)cc12` (single isomer, unassigned) [875 (Isomer 3)] was 10 to 30 µM.
As for `COc1cccc2[nH]c(C(=O)N[C@H](CN[C@H](C#N)C[C@@H]3CCNC3=O)CC(C)(C)C)cc12` [Compound 659, N-[(1S)-1-[[[(1S)-1-cyano-2-[(3S)-2-oxopyrrolidin-3-yl]ethyl]amino]methyl]-3,3-dimethyl-butyl]-4-methoxy-1H-indole-2-carboxamide], the figure is > 30 µM.
Take `COc1cccc2[nH]c(C(=O)N[C@@H](CC(C)(C)F)C(=O)N[C@H](C#N)C[C@@H]3CCCNC3=O)cc12` [Compound 667, N-[(1S)-1-[[(1S)-1-cyano-2-[(3S)-2-oxo-3-piperidyl]ethyl]carbamoyl]-3-fluoro-3-methyl-butyl]-4-methoxy-1H-indole-2-carboxamide]: the EC50 was < 2 µM.
The value for `N#C[C@H](C[C@@H]1CCCNC1=O)NC(=O)[C@H](CC1CC1)NC(=O)c1ncc(Cl)[nH]1` [Compound 868] was < 2 µM; that for `COc1cccc2[nH]c(C(=O)N3C[C@H](c4ccccc4)C[C@H]3C(=O)N[C@H](C#N)C[C@@H]3CCCNC3=O)cc12` [Compound 611, (2S,4S)-N-[(1S)-1-cyano-2-[(3S)-2-oxo-3-piperidyl]ethyl]-1-(4-methoxy-1H-indole-2-carbonyl)-4-phenyl-pyrrolidine-2-carboxamide] was < 2 µM; that for `COc1cccc2[nH]c(C(=O)N[C@@H](CC(C)C)C(=O)N[C@@H](C[C@@H]3CCNC3=O)C3OC(=O)N(C(C)C)C3=N)cc12` (stereo partly drawn) [Compound 357, N-((2S)-1-(((1S)-1-(4-imino-3-isopropyl-2-oxooxazolidin-5-yl)-2-((S)-2-oxopyrrolidin-3-yl)ethyl)amino)-4-methyl-1-oxopentan-2-yl)-4-methoxy-1H-indole-2-carboxamide] was > 30 µM.
On to `COc1cccc2[nH]c(C(=O)N3C[C@H](OC)C[C@H]3C(=O)N[C@H](C#N)C[C@@H]3CCNC3=O)cc12` [Compound 407], for which the EC50 is < 2 µM.
On to `COc1cccc2[nH]c(C(=O)N[C@@H](CC(C)C)C(=O)NC(C#N)Cc3n[nH]c4ccccc34)cc12` (mixture of isomers) [Compound 245, N-[(1S)-1-[[1-cyano-2-(1H-indazol-3-yl)ethyl]carbamoyl]-3-methyl-butyl]-4-methoxy-1H-indole-2-carboxamide], for which the EC50 is > 30 µM.
`N#C[C@H](C[C@@H]1CCNC1=O)NC(=O)[C@@H](CC1CC1)N1CCc2cc[nH]c2C1=O` [Compound 267A, (2R)-N-[(1S)-1-cyano-2-[(3S)-2-oxopyrrolidin-3-yl]ethyl]-3-cyclopropyl-2-(7-oxo-4,5-dihydro-1H-pyrrolo[2,3-c]pyridin-6-yl)propanamide]: the EC50 was > 30 µM.
As for `N#C[C@]1(NC(=O)[C@H](CC2CC2)NC(=O)OCc2ccccc2)C[C@H]2CC[C@@H]1[C@H]1C(=O)NC(=O)[C@@H]21` (single isomer, unassigned) [495 (Isomer 1)], the figure is > 30 µM.
The value for `N#C[C@H](C[C@@H]1CCCNC1=O)NC(=O)[C@H](CC1CC1)NC(=O)c1cc(Cl)c(Cl)[nH]1` [Compound 866, 4,5-dichloro-N-[(1S)-2-[[(1S)-1-cyano-2-[(3S)-2-oxo-3-piperidyl]ethyl]amino]-1-(cyclopropylmethyl)-2-oxo-ethyl]-1H-pyrrole-2-carboxamide] was < 2 µM; that for `COc1nccc2[nH]c(C(=O)N[C@@H](CC3CC3)C(=O)N[C@H](C#N)C[C@@H]3CCCNC3=O)cc12` [Compound 623, N-[(1S)-2-[[(1S)-1-cyano-2-[(3S)-2-oxo-3-piperidyl]ethyl]amino]-1-(cyclopropylmethyl)-2-oxo-ethyl]-4-methoxy-1H-pyrrolo[3,2-c]pyridine-2-carboxamide] was > 30 µM; that for `CCNC(C#N)[C@H](C[C@@H]1CCNC1=O)NC(=O)[C@H](CC(C)C)NC(=O)c1cc2c(OC)cccc2[nH]1` (single isomer, unassigned) [511 (Isomer 1)] was < 2 µM.
The value for `COc1cc(Cl)c2[nH]c(C(=O)N[C@@H](CC(C)(C)C)C(=O)N[C@H](C#N)C[C@@H]3CCCNC3=O)cc2c1` [Compound 810, 7-chloro-N-[(1S)-1-[[(1S)-1-cyano-2-[(3S)-2-oxo-3-piperidyl]ethyl]carbamoyl]-3,3-dimethyl-butyl]-5-methoxy-1H-indole-2-carboxamide] was < 2 µM.
On to `N#C[C@H](C[C@@H]1CCCNC1=O)NC(=O)[C@H](CC1CC1)NC(=O)c1cc2c(Cl)cncc2[nH]1` [Compound 669, 4-chloro-N-((S)-1-(((S)-1-cyano-2-((S)-2-oxopiperidin-3-yl)ethyl)amino)-3-cyclopropyl-1-oxopropan-2-yl)-1H-pyrrolo[2,3-c]pyridine-2-carboxamide], for which the EC50 is < 2 µM.
As to `COc1ccc2[nH]c(C(=O)N[C@@H](CC3CC3)C(=O)N[C@H](C#N)C[C@@H]3CCCNC3=O)cc2c1` [Compound 619, N-[(1S)-2-[[(1S)-1-cyano-2-[(3S)-2-oxo-3-piperidyl]ethyl]amino]-1-(cyclopropylmethyl)-2-oxo-ethyl]-5-methoxy-1H-indole-2-carboxamide], the EC50 is < 2 µM.
As for `N#C[C@H](C[C@@H]1CCNC1=O)NC(=O)C1CC2(CCCCC2)CN1C(=O)c1cc2ccc(Cl)c(Cl)c2[nH]1` (single isomer, unassigned) [986 (Isomer 2)], the EC50 is > 30 µM.
In the case of `N#C[C@H](C[C@@H]1CCNC1=O)NC(=O)[C@H](CC1CC1)N1CCc2cc[nH]c2C1=O` [Compound 267, (2S)-N-[(1S)-1-cyano-2-[(3S)-2-oxopyrrolidin-3-yl]ethyl]-3-cyclopropyl-2-(7-oxo-4,5-dihydro-1H-pyrrolo[2,3-c]pyridin-6-yl)propanamide], the EC50 is < 2 µM.
Consider `COc1cccc2[nH]c(C(=O)N[C@@H](CC(C)C)C(=O)N[C@@H](C[C@@H]3CCNC3=O)C(C#N)N3CCCC3)cc12` (single isomer, unassigned) [331 (Isomer 2)], for which the EC50 is < 2 µM.
Regarding `CC(C)(C)OC(=O)Nc1cccn([C@@H](CC2CC2)C(=O)N[C@H](C#N)C[C@@H]2CCNC2=O)c1=O` (single isomer, unassigned) [505 (Isomer 2)], the EC50 is > 30 µM.
Take `CC(C)C[C@H](NC(=O)c1nc2ncccc2[nH]1)C(=O)N[C@H](C#N)C[C@@H]1CCNC1=O` [Compound 131, N-[(1S)-1-[[(1S)-1-cyano-2-[(3S)-2-oxopyrrolidin-3-yl]ethyl]carbamoyl]-3-methyl-butyl]-1H-imidazo[4,5-b]pyridine-2-carboxamide]: the EC50 was < 2 µM.
For `N#C[C@H](C[C@@H]1CCNC1=O)NC(=O)[C@H](CC1CC1)N1CCC2(CCCN2)C1=O` (stereo partly drawn) [Compound 471, N-[(1S)-1-cyano-2-[(3S)-2-oxopyrrolidin-3-yl]ethyl]-3-cyclopropyl-2-(6-oxo-1,7-diazaspiro[4.4]nonan-7-yl)propanamide], the EC50 lay within 10 to 30 µM.
The value for `CC(C)(C)C[C@H](NC(=O)c1cc2c(Cl)cccc2[nH]1)C(=O)N[C@H](C#N)C[C@@H]1CCCNC1=O` [Compound 793, 4-chloro-N-[(1S)-1-[[(1S)-1-cyano-2-[(3S)-2-oxo-3-piperidyl]ethyl]carbamoyl]-3,3-dimethyl-butyl]-1H-indole-2-carboxamide] was < 2 µM; that for `COc1cccc2[nH]c(C(=O)N[C@@H](CC3CC3)C(=O)NC(C#N)CN3CCNC3=O)cc12` (mixture of isomers) [Compound 493, N-[(1S)-2-[[1-cyano-2-(2-oxoimidazolidin-1-yl)ethyl]amino]-1-(cyclopropylmethyl)-2-oxo-ethyl]-4-methoxy-1H-indole-2-carboxamide] was > 30 µM.
With `COc1cccc2[nH]c(C(=O)N[C@@H](CC3CC3)C(=O)N[C@@]3(C#N)C[C@H]4CC[C@@H]3[C@H]3C(=O)NC(=O)[C@@H]43)cc12` (single isomer, unassigned) [489 (Isomer 1)], the EC50 was > 30 µM.
Regarding `COc1cccc2[nH]c(C(=O)N3CC4(CCOCC4)C[C@H]3C(=O)N[C@H](C#N)C[C@@H]3CCNC3=O)cc12` [Compound 387, N-((S)-1-cyano-2-((S)-2-oxopyrrolidin-3-yl)ethyl)-2-(4-methoxy-1H-indole-2-carbonyl)-8-oxa-2-azaspiro[4.5]decane-3-carboxamide], the EC50 is > 30 µM.
On to `COc1cccc2[nH]c(C(=O)N3CC(C45CC(C4)C5)C[C@H]3C(=O)N[C@H](C#N)C[C@@H]3CCNC3=O)cc12` (single isomer, unassigned) [385 (Isomer 2)], for which the EC50 was < 2 µM.
As to `COc1ccc2[nH]c(C(=O)N3CC4(CCCCC4)CC3C(=O)N[C@H](C#N)C[C@@H]3CCNC3=O)cc2c1Cl` (single isomer, unassigned) [880 (Isomer 2)], the concentration for a half-maximal effect (EC50) was < 2 µM.
